IC50 data for 24 compounds are collected here from ChEMBL document CHEMBL5352493, “Dual inhibitors of ASK1 and PDK1 kinases: Design, synthesis, molecular docking and mechanism studies of N-benzyl pyridine-2-one containing derivatives as anti-fibrotic agents” (Eur J Med Chem, 2023).

Where only a bound is given, the exact number is not on record here.

The target in data set [1] is T1, Mitogen-activated protein kinase kinase kinase 5 (Homo sapiens, UniProt Q99683).
T1 sequence (Q99683 whole entry): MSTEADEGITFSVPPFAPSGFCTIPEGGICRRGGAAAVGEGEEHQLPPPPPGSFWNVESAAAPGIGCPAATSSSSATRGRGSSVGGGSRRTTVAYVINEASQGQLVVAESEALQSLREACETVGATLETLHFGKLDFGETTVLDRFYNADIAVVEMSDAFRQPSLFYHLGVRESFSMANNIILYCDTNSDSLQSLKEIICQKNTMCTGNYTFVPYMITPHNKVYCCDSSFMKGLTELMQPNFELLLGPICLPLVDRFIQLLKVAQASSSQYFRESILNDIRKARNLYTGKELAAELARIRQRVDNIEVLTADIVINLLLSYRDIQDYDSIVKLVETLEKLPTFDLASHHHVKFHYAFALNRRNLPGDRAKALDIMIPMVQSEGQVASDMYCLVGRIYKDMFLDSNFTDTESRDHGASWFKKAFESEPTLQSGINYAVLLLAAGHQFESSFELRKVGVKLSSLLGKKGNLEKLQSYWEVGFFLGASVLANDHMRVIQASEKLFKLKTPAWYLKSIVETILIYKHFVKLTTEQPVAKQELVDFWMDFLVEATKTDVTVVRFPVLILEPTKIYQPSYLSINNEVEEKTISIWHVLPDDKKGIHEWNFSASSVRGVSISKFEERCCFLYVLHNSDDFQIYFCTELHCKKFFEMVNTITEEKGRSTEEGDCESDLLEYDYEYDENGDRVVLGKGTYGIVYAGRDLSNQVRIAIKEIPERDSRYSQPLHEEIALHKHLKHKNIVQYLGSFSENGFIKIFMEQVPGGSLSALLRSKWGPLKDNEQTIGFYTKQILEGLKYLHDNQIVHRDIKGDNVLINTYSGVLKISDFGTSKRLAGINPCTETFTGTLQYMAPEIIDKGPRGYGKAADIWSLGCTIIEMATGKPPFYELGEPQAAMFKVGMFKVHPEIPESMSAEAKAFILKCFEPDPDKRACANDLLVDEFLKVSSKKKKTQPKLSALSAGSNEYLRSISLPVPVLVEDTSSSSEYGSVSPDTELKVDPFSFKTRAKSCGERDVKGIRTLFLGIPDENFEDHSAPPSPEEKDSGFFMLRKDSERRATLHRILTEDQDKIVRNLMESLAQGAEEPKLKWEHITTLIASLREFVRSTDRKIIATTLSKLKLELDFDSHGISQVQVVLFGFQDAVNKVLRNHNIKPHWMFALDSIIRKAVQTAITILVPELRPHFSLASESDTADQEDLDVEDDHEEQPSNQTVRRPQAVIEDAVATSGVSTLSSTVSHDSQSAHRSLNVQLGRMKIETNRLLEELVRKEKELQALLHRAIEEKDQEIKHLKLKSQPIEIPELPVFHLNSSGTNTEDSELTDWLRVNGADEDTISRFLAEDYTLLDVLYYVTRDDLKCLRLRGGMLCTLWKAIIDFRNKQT
Description: Inhibition of human recombinant ASK1 using MBP as substrate preincubated for 1 hr followed by reagent addition incubated for 40 mins by ATP-Glo kinase assay.

Data set [2] in a line: Antiproliferative against rat HSC-T6 cells measured after 48 hrs by CCK8 assay. The class given is toxicity, cell-based.
Data set [3] can be described thus: Antiproliferative against HLF1 cells measured after 48 hrs by CCK8 assay. The class given is toxicity, cell-based. Conditions: human, HFL1 cells (description prints HLF1).
Data set [4] can be described thus: Antiproliferative against rat NRK-49F cells measured after 48 hrs by CCK8 assay. It counts as toxicity, cell-based.
The target in data set [5] is T1, Mitogen-activated protein kinase kinase kinase 5. Briefly: Inhibition of ASK1 (unknown origin).
Data set [6] can be described thus: Antiproliferative against human BEAS-2B cells measured after 48 hrs by CCK8 assay. It counts as toxicity, cell-based.

As for `O=C(Nc1cccc(-c2nncn2C2CC2)n1)c1cc(Br)cn(Cc2ccccc2F)c1=O`, the IC50 in data set [1] was over 5 µM. Further, the IC50 at 48 h in data set [2], in data set [3] and in data set [4] was over 80 µM in each case.

Take `CC(C)n1cnnc1-c1cccc(NC(=O)c2cc3c(C(F)(F)F)nn(C)c3nc2OCc2ccccc2F)n1`: in data set [1], the IC50 is over 5 µM. The IC50 at 48 h is over 80 µM in data set [2], 17.9 µM in data set [3] and over 80 µM in data set [4].

As to `O=C(Nc1cccc(-c2nncn2C2CC2)n1)c1cc(-c2cnn(C3CCC3)c2)cn(Cc2ccccc2F)c1=O`, the IC50 in data set [1] came to 0.289 µM. Besides, the results for the half-inhibitory concentration (IC50) at 48 h in data set [2], in data set [3] and in data set [4] were over 80 µM, 10.7 µM and over 80 µM, respectively.

Take `CC(C)n1cnnc1-c1cccc(NC(=O)c2cc3c(C(F)(F)F)nn(C)c3[nH]c2=O)c1`: the IC50 in data set [1] was over 5 µM. Also, the IC50 at 48 h in data set [2], in data set [3] and in data set [4] was over 80 µM throughout.

On to `CCn1c(=O)c(C(=O)Nc2cccc(-c3nncn3C3CCCCC3)n2)cc2c(C(F)(F)F)nn(C)c21`, for which the IC50 in data set [1] was 1.57 µM. Further, the IC50 at 48 h in data set [2], in data set [3] and in data set [4] was over 80 µM in each case.

For the compound `O=C(Nc1cccc(-c2nncn2C2CC2)n1)c1cc(-c2ccc3scnc3c2)cn(Cc2ccccc2F)c1=O`, in data set [1], the IC50 is over 5 µM. In addition, the IC50 at 48 h was over 80 µM in data set [2], 68.3 µM in data set [3] and 34.2 µM in data set [4].

Turning to `CC(C)n1cnnc1-c1cccc(NC(=O)c2cc3c(C(F)(F)F)nn(C)c3[nH]c2=O)n1`, in data set [1], the IC50 came out at 2.66 µM. For the same compound, the IC50 at 48 h in data set [2], in data set [3] and in data set [4] was over 80 µM throughout.

Take `Cn1nc(C(F)(F)F)c2cc(C(=O)Nc3cccc(-c4nncn4C4CC4)n3)c(=O)[nH]c21`: the IC50 in data set [1] worked out at 0.489 µM. The IC50 at 48 h in data set [2], in data set [3] and in data set [4] was over 80 µM throughout.

On to `CCCCn1cnnc1-c1cccc(NC(=O)c2cc3c(C(F)(F)F)nn(C)c3[nH]c2=O)n1`, for which the IC50 in data set [1] worked out at 0.978 µM. Besides, the IC50 at 48 h in data set [2], in data set [3] and in data set [4] was over 80 µM in each case.

Turning to `Cn1nc(C(F)(F)F)c2cc(C(=O)Nc3cccc(-c4nncn4C4CCCC4)n3)c(=O)[nH]c21`, the IC50 in data set [1] turned out to be 2.18 µM. In addition, the IC50 at 48 h in data set [2], in data set [3] and in data set [4] was over 80 µM throughout.

`Cc1cc(F)c(C(=O)Nc2cccc(-c3nncn3C(C)C)c2)cc1-n1cnc(C2CC2)c1`: the IC50 in data set [5] was found to be 0.0129 µM.

With `O=C(Nc1cccc(-c2nncn2C2CC2)n1)c1cc(-c2cccnc2)cn(Cc2ccccc2F)c1=O`, the IC50 in data set [1] was over 5 µM. The values for the IC50 at 48 h in data set [2], in data set [3] and in data set [4] were over 80 µM, 64.2 µM and over 80 µM, respectively.

`O=C(Nc1cccc(-c2nncn2C2CC2)n1)c1cc(-c2cnn(C(F)F)c2)cn(Cc2ccccc2F)c1=O`: the IC50 in data set [1] worked out at 0.291 µM. In addition, the values for the IC50 at 48 h in data set [2], in data set [3] and in data set [4] were over 80 µM, over 80 µM and 58.5 µM, respectively.

For the compound `CC(C)n1cnnc1-c1cccc(NC(=O)c2cc3c(C(F)(F)F)nn(C)c3n(C)c2=O)c1`, the IC50 in data set [1] was over 5 µM. Moreover, the values for the IC50 at 48 h in data set [2], in data set [3] and in data set [4] were over 80 µM, over 80 µM and 56.1 µM, respectively.

`O=C(Nc1cccc(-c2nncn2C2CC2)n1)c1cc(-c2cccc3[nH]ccc23)cn(Cc2ccccc2F)c1=O`: the IC50 in data set [1] was over 5 µM. In addition, the results for the IC50 at 48 h in data set [2], in data set [3] and in data set [4] were over 80 µM, over 80 µM and 47 µM, respectively.

Regarding `O=C(Nc1cccc(-c2nncn2C2CC2)n1)c1cc(-c2ccc3[nH]ccc3c2)cn(Cc2ccccc2F)c1=O`, the IC50 in data set [1] is over 5 µM. For the same compound, the IC50 at 48 h is over 80 µM in data set [2], 18.7 µM in data set [3] and 5.75 µM in data set [4].

Take `Cn1nc(C(F)(F)F)c2cc(C(=O)Nc3cccc(-c4nncn4C4CC4)n3)c(OCc3ccccc3F)nc21`: the IC50 in data set [1] was found to be 1.29 µM. In addition, the IC50 at 48 h is over 80 µM in data set [2], 62.5 µM in data set [3] and 55.2 µM in data set [4].

`Cn1nc(C(F)(F)F)c2cc(C(=O)Nc3cccc(-c4nncn4C4CCCC4)n3)c(OCc3ccccc3F)nc21`: the IC50 in data set [1] is 1.02 µM. Moreover, the values for the IC50 at 48 h in data set [2], in data set [3] and in data set [4] were 14.8 µM, 7.99 µM and 11.4 µM, respectively.

Take `Cn1nc(C(F)(F)F)c2cc(C(=O)Nc3cccc(-c4nncn4C4CCCCC4)c3)c(=O)[nH]c21`: in data set [1], the half-inhibitory concentration (IC50) was over 5 µM. In addition, the IC50 at 48 h in data set [2], in data set [3] and in data set [4] was over 80 µM each time.

Take `O=C(Nc1cccc(-c2nncn2C2CC2)c1)c1cc(-n2cnc(C3CC3)c2)ccn1`: the IC50 at 48 h stood at 90.2 µM in data set [6], 33.4 µM in data set [2], 67.9 µM in data set [3] and 34.4 µM in data set [4].

Regarding `Cn1nc(C(F)(F)F)c2cc(C(=O)Nc3cccc(-c4nncn4C4CCCC4)c3)c(=O)[nH]c21`, the IC50 in data set [1] is over 5 µM. Besides, the concentration for half-maximal inhibition (IC50) at 48 h in data set [2], in data set [3] and in data set [4] was over 80 µM each time.

On to `O=C(Nc1cccc(-c2nncn2C2CC2)n1)c1cc(-c2cnc(Cl)nc2)cn(Cc2ccccc2F)c1=O`, for which the IC50 in data set [1] stood at 2.37 µM. For the same compound, the IC50 at 48 h in data set [2] was over 80 µM; in data set [3], 29.2 µM; in data set [4] it was over 80 µM.

Consider `O=C(N[C@@H](COc1ccc2[nH]c(=O)[nH]c2c1)c1ccccc1)c1cccn(Cc2ccc(F)c(F)c2)c1=O`, for which the IC50 at 48 h in data set [6] was 96.4 µM; in data set [2] it was 36.2 µM; in data set [3], 64.8 µM; in data set [4] it was 40.4 µM. In data set [1], the IC50 is over 5 µM.

For the compound `Cn1nc(C(F)(F)F)c2cc(C(=O)Nc3cccc(-c4nncn4C4CCCCC4)n3)c(=O)[nH]c21`, the IC50 in data set [1] was over 5 µM. In addition, the IC50 at 48 h in data set [2], in data set [3] and in data set [4] was over 80 µM each time.
